Data on ten compounds can be found in paper PMC6273820, “Antimicrobial Activity and Stability of Short and Long Based Arachnid Synthetic Peptides in the Presence of Commercial Antibiotics” (Molecules, 2016).

Converted amounts (≈) assume the structure as drawn. Where two headings read alike, the source gives them in different places. Where no end group is shown, it is not given here. A value given as a limit tells only on which side of the number the result lay.

Data set [1] relates to Staphylococcus aureus ATCC 25923. Put plainly: microbe, parasite or virus in culture. Type of data set: cell-based. The settings on record: for MIC: Staphylococcus aureus, read-out: Minimal Inhibitory Concentration, S. aureus. The method, then: (§1) It was determined using the broth microdilution assay in accordance with the procedures from the Clinical and Laboratory Standards Institute. For broth microdilution assays, pathogenic bacteria, such as Escherichia coli ATCC 25922, Staphylococcus aureus ATCC 25923, Pseudomonas aeruginosa ATCC 27853 and Klebsiella pneumoniae ST258, were cultured in Mueller-Hinton broth (MHB) at 37 °C until an end point between of 0.08 and 0.13 units of absorbance at 625 nm and diluted 1:100 in MHB (ca. […]). Fifty microliters of this bacterial suspension was dispensed into each well of a 96-well microtiter Costar® culture plates (Sigma Aldrich) having 50 µL of MHB containing a proper concentration of pure AMPs, antibiotics or the mixture of either of the AMPs with either of the antibiotics used. Dilutions of peptides and antibiotics were made manually with two-fold dilutions.
(§2) E. coli, S. aureus, P. aeruginosa and K. pneumoniae were grown in the presence of each of the four AMPs, and in the presence of each of the eight commercial antibiotics, which were Levofloxacin, Trimethoprim, Sulfamethoxazole, Azithromycin, Amoxicillin, Ceftriaxone, Gentamicin and Vancomycin, and in combinations of AMPs and the antibiotics. That is, the antimicrobial capacity of each AMP (50, 25, 12.5 and 6.2 µg/ mL) in combination with each antibiotic agent (50, 25, 12.5, 3.2, 1.6 and 0 µg/ mL) was measured as described above. For evaluation of the effect of the mixtures, the fractional inhibitory concentration (FIC) was calculated for each antibiotic in each combination. The following formulas were used to calculate the FIC index: FIC of AMP = MIC of AMP in combination with Antibiotic/MIC of AMP alone; FIC of Antibiotic = MIC of Antibiotic in combination with AMP/MIC of Antibiotic alone, and FIC index = FIC of AMP + FIC of Antibiotic. Synergy was defined as an FIC index of <0.5. Additive was defined as an FIC index of >0.5 but of <4, and finally antagonism was defined as an FIC index of >4.

Data set [2] has as its system Pseudomonas aeruginosa ATCC 27853. Description: microbe, parasite or virus in culture. Type of data set: cell-based. The settings on record: for MIC: Pseudomonas aeruginosa, read-out: Minimal Inhibitory Concentration, P. aureginosa. The method, then: as §1, §2
Data set [3] has as its system Klebsiella pneumoniae ST258. Description: microbe, parasite or virus in culture. Type of data set: cell-based. The note with it: for MIC: Klebsiella pneumoniae, ST258, 18 h. Here is the method:
as §1
as §2, with “That” for “E. coli, S. aureus, P. aeruginosa and K. pneumoniae were grown in the presence of each of the four AMPs, and in the presence of each of the eight commercial antibiotics, which were Levofloxacin, Trimethoprim, Sulfamethoxazole, Azithromycin, Amoxicillin, Ceftriaxone, Gentamicin and Vancomycin, and in combinations of AMPs and the antibiotics. That”

For data set [4], the system named is Escherichia coli ATCC 25922. Put plainly: microbe, parasite or virus in culture. The note with it: for MIC: Escherichia coli, read-out: Minimal Inhibitory Concentration, E. coli. The class given is cell-based. The method, then: as §1, with “dilutions. […]” for “dilutions.”
Data set [5] in a line: Stability in human blood plasma. Type of data set: in vitro ADME. The note with it: 50 μg/mL; for Peptide found after incubation in human blood plasma: 12 h at 37 °C, extraction, reverse phase HPLC at 230 nm, ESI-MS. Here is the method:
(§3) The four synthetic peptides were subjected to incubation in human blood plasma or in the supernatant of S. aureus and P. aeruginosa growth. The AMPs were diluted in human blood plasma or in the supernatant of bacterial growth (50 μg/mL) and incubated at 37 °C for 12 h. After peptide extraction, the AMPs were separated by reverse phase HPLC using a C18 column (Vydac 218 TP54, Grace Co.) and a linear gradient of acetonitrile in 0.1% aqueous TFA from 0 to 60% in 60 min at a flow rate of 1 mL/min. Effluent absorbance was monitored at 230 nm. Peptide fractions were dried under vacuum, resuspended and analyzed by ESI-MS to confirm their molecular masses.

Data set [6] in a line: Stability in supernatant of S. aureus growth. The note with it: 50 μg/mL, 12 h at 37 °C, extraction, reverse phase HPLC at 230 nm. Type of data set: in vitro ADME, Staphylococcus aureus. The method, then:
as §3

The conditions of data set [7]: cited from earlier work. An excerpt:
Concerning AMPs, several physicochemical characteristics have been associated with the biological activity of them. Those that are relevant include hydrophobicity, the helical hydrophobic moment, as well as the size and the net charge of the peptide. However, no particular value relating to any of these characteristics was solely sufficient to correlate with the antimicrobial activity of the AMPs tested. In this case, however, the larger peptides FA1 and Pin2[G] were the AMPs that manifested optimum biological performance. Nevertheless, a fine balance in terms of physicochemical pr ...

Data set [8] is described as follows: Stability in supernatant of P. aeruginosa growth. The class given is in vitro ADME, Pseudomonas aeruginosa. The settings on record: 50 μg/mL, 12 h at 37 °C, extraction, reverse phase HPLC at 230 nm. The method, then:
as §3

[9] abbreviates: read-out: Minimal Inhibitory Concentration, K. pneumoniae.
Where [10] appears, read: dose-response in Muller-Hinton broth, Figure 3D.
Where [11] appears, read: ATCC25923, broth microdilution (CLSI), Mueller-Hinton broth, 18 h at 37 °C, A625nm, peptides n = 8.
Where [12] appears, read: ATCC27853, broth microdilution (CLSI), Mueller-Hinton broth, 18 h at 37 °C, A625nm, peptides n = 8.
Where [13] appears, read: ATCC25922, broth microdilution (CLSI), Mueller-Hinton broth, 18 h at 37 °C, A625nm, peptides n = 8.
Where [14] appears, read: broth microdilution (CLSI), Mueller-Hinton broth, 18 h at 37 °C, A625nm, peptides n = 8.

Regarding `CC1(C)S[C@@H]2[C@H](NC(=O)[C@H](N)c3ccc(O)cc3)C(=O)N2[C@H]1C(=O)O` [Amoxicillin], the MIC is 1.5 µg/mL in data set [1] (ATCC25923, 18 h); over 50 µg/mL in data set [2] (ATCC27853, 18 h); over 50 µg/mL in data set [3] (read-out: Antibiotic (MIC)); over 50 µg/mL in data set [3] (setting [9]); 12.5 µg/mL (≈ 34.2 µM) in data set [4] (ATCC25922, 18 h). For the same compound, the “Susceptibility of P. aeruginosa in words” value in data set [2] is on record as “resistant”. Besides, the “Antibiotic concentration in whose presence K. pneumoniae could grow (up to)” value (“Antibiotic concentration” below) in data set [3] (setting [10]) is reported as “up to 50 µg/mL”.
As to `CNC(C)C1CCC(N)C(OC2C(N)CC(N)C(OC3OCC(C)(O)C(NC)C3O)C2O)O1` (stereo not shown) [Gentamicin], the MIC is 1.5 µg/mL in data set [1] (setting [11]); 1.5 µg/mL in data set [2] (setting [12]); 12.5 µg/mL in data set [3] (setting [9]); 12.5 µg/mL in data set [3] (antibiotic alone against K. pneumoniae, based on Figure 3, read-out: Antibiotic (MIC)); 1.5 µg/mL (≈ 3.14 µM) in data set [4] (setting [13]). Also, the “Susceptibility of K. pneumoniae in words” value in data set [3] (setting [10]) was “susceptible”.
`C[C@H]1COc2c(N3CCN(C)CC3)c(F)cc3c(=O)c(C(=O)O)cn1c23` [Levofloxacin]: the MIC in data set [1] (setting [11]) turned out to be 1.5 µg/mL; in data set [2] (setting [12]) it was 1.5 µg/mL; in data set [3] (read-out: Antibiotic (MIC)), 50 µg/mL; in data set [3] (setting [9]) it was 50 µg/mL; in data set [4] (setting [13]), 1.5 µg/mL (≈ 4.15 µM). Besides, the “Antibiotic concentration” value in data set [3] (setting [10]) is recorded as “up to 25 µg/mL”.
As to `Cc1cc(NS(=O)(=O)c2ccc(N)cc2)no1` [Sulfamethoxazole], the “Susceptibility of S. aureus in words” value in data set [1] is listed as “resistance”. The MIC in data set [1] (ATCC25923, 18 h) is over 50 µg/mL; in data set [2] (ATCC27853, 18 h), over 50 µg/mL; in data set [3] (read-out: Antibiotic (MIC)), over 50 µg/mL; in data set [3] (setting [9]) it was over 50 µg/mL; in data set [4] (ATCC25922, 18 h), over 50 µg/mL. The “Susceptibility of P. aeruginosa in words” value in data set [2] was “resistant”. The “Susceptibility of E. coli in words” value in data set [4] was “to some extent”.
On to FWGLKGLKKFSKKL [Pin2[14]], for which, in data set [1] (setting [14]), the “Minimal Inhibitory Concentration, S. aureus” value is recorded as over 50 µg/mL. Besides, the “Minimal Inhibitory Concentration, P. aureginosa” value in data set [2] (setting [14]) is given as over 50 µg/mL. Further, in data set [5], the “Peptide found after incubation in human blood plasma” value was “not found”. For the same compound, the “Recovery after interaction with human plasma, first few minutes of dilution” value in data set [5] (extracted after the first few minutes of dilution, reverse phase HPLC) is “none”. In data set [3] (setting [14]), the “Minimal Inhibitory Concentration, K. pneumoniae” value was over 50 µg/mL. The “Minimal Inhibitory Concentration, E. coli” value in data set [4] (setting [14]) is on record as over 50 µg/mL. The “Stability in supernatants of S. aureus” value in data set [6] is reported as “not cleaved”. Also, the hemolytic activity in data set [7] is listed as 418 µM.
Turning to FWGALAKGALKLIGSLFSSFSKKD [Pin2[G]], the “Stability in supernatants of P. aeruginosa” value in data set [8] is “not cleaved”. In addition, the “Minimal Inhibitory Concentration, S. aureus” value in data set [1] (setting [14]) came to 25 µg/mL. The “Minimal Inhibitory Concentration, P. aureginosa” value in data set [2] (setting [14]) is listed as over 50 µg/mL. Besides, the “Peptide found after incubation in human blood plasma” value in data set [5] is “One quarter”. Besides, in data set [3] (peptide alone against K. pneumoniae, based on Figure 2), the “Peptide (MIC)” value was over 50 µg/mL. Besides, the “Minimal Inhibitory Concentration, E. coli” value in data set [4] (setting [14]) stood at 50 µg/mL. In data set [6], the “Stability in supernatants of S. aureus” value is recorded as “not cleaved”. For the same compound, the hemolytic activity in data set [7] is listed as 1.4 µM.
On to `COc1cc(Cc2cnc(N)nc2N)cc(OC)c1OC` [Trimethoprim], for which the MIC in data set [1] (ATCC25923, 18 h) was 1.5 µg/mL; in data set [2] (ATCC27853, 18 h), over 50 µg/mL; in data set [3] (read-out: Antibiotic (MIC)), over 50 µg/mL; in data set [3] (setting [9]) it was over 50 µg/mL; in data set [4] (ATCC25922, 18 h), 1.5 µg/mL (≈ 5.17 µM). Besides, in data set [2], the “Susceptibility of P. aeruginosa in words” value is “resistant”. The “Antibiotic concentration” value in data set [3] (setting [10]) was “up to 50 µg/mL”.
`CN[C@H](CC(C)C)C(=O)N[C@H]1C(=O)N[C@@H](CC(N)=O)C(=O)N[C@H]2C(=O)N[C@H]3C(=O)N[C@H](C(=O)N[C@H](C(=O)O)c4cc(O)cc(O)c4-c4cc3ccc4O)[C@H](O)c3ccc(c(Cl)c3)Oc3cc2cc(c3O[C@@H]2O[C@H](CO)[C@@H](O)[C@H](O)[C@H]2O[C@H]2C[C@](C)(N)[C@H](O)[C@H](C)O2)Oc2ccc(cc2Cl)[C@H]1O` [Vancomycin]: the MIC in data set [1] (setting [11]) was 1.5 µg/mL; in data set [2] (setting [12]), over 50 µg/mL; in data set [3] (read-out: Antibiotic (MIC)) it was over 50 µg/mL; in data set [3] (setting [9]), over 50 µg/mL; in data set [4] (setting [13]), over 50 µg/mL. In data set [2] (dose-response in Muller-Hinton broth, Figure 3B), the “Susceptibility of P. aeruginosa in words” value was “resistant”. Further, in data set [3] (setting [10]), the “Antibiotic concentration” value is “up to 50 µg/mL”. For the same compound, the “Susceptibility of E. coli in words” value in data set [4] (dose-response in Muller-Hinton broth, Figure 3C) is reported as “resistance”.
Take `CC[C@H]1OC(=O)[C@H](C)[C@@H](O[C@H]2C[C@@](C)(OC)[C@@H](O)[C@H](C)O2)[C@H](C)[C@@H](O[C@@H]2O[C@H](C)C[C@H](N(C)C)[C@H]2O)[C@](C)(O)C[C@@H](C)CN(C)[C@H](C)[C@@H](O)[C@]1(C)O` [Azithromycin]: the MIC was 3.1 µg/mL in data set [1] (setting [11]); 12.5 µg/mL in data set [2] (setting [12]); over 50 µg/mL in data set [3] (read-out: Antibiotic (MIC)); over 50 µg/mL in data set [3] (setting [9]); 1.5 µg/mL (≈ 2 µM) in data set [4] (setting [13]). Further, the “Antibiotic concentration” value in data set [3] (setting [10]) is reported as “up to 50 µg/mL”.
For `CO/N=C(\C(=O)N[C@@H]1C(=O)N2C(C(=O)O)=C(CSc3nc(=O)c(=O)[nH]n3C)CS[C@H]12)c1csc(N)n1` [Ceftriaxone], the MIC was 1.5 µg/mL in data set [1] (setting [11]); 12.5 µg/mL in data set [2] (setting [12]); over 50 µg/mL in data set [3] (read-out: Antibiotic (MIC)); over 50 µg/mL in data set [3] (setting [9]); 1.5 µg/mL (≈ 2.7 µM) in data set [4] (setting [13]). In addition, in data set [3] (setting [10]), the “Antibiotic concentration” value is “up to 50 µg/mL”.
